The values below come from EP4692079A1, “CYP11A1 INHIBITOR AND USE THEREOF” (priority 2023, dated 2024).

Data set [1] can be described thus: Pharmacokinetic test in mice. In kind it is in vivo. As to conditions: mouse, male ICR mice, plasma; for Vd: read-out: Vdss. As to the method: 4.1. Experimental animals: Male ICR mice, 20-25 g, 6 mice/compound, were purchased from Chengdu Dossy Experimental Animals Co., Ltd.
4.2 Experimental design: on the day of the experiment, the ICR mice were randomly grouped according to their body weights. […] Table 6 Administration information
Before and after administration, 0.06 mL of blood was taken from the orbit under isoflurane anaesthesia and placed in an EDTAK2 centrifuge tube. The tube was centrifuged at 5000 rpm at 4°C for 10 min, and plasma was collected. […] Before analysis and detection, all samples were stored at -80°C, and the samples were quantitatively analysed by LC-MS/MS.

The subject of data set [2] is pregnenolone level in NCI-H295R cells. The data set is described as follows: cells. In kind it is cell-based. The settings on record: Homo sapiens, 72 h; for inhibition at 0.1 µM: read-out: Pregnenolone level in H295R (Elisa) inh.% 100 nM; for inhibition at 1 µM: read-out: Pregnenolone level in H295R (Elisa) inh.% 1000 nM; for IC50: read-out: Pregnenolone level in H295R (Elisa) IC50 nM. The method, then:
2. The purpose of the experimental study was intended to detect the pregnenolone level in the NCI-H295R cells by adopting the Enzyme linked immunosorbent assay (ELISA), so as to evaluate the inhibitory effects of the compounds on the pregnenolone level in the NCI-H295R cells.
The H295R cells were purchased from ATCC (CRL-2128), the cell complete medium contained DMEM: F12+ 10% FBS +0.00625 mg/ml insulin+0.00625 mg/mL transferrin+6.25 ng/mL selenium+1.25 mg/mL BSA+0.00535 mg/mL linoleic acid, and the cells were cultured in a 37°C, 5% CO2 incubator. The cells in the exponential growth phase were collected, and cultured in a cytokine-free medium (phenol red 1640-free +1% PS+10% css FBS+1.25 mg/mL BSA +0.00625 mg/mL insulin+0.00625 mg/mL transferrin+6.25 ng/mL selenium+0.00535 mg/mL linoleic acid) for three days. The cells in the exponential growth phase were collected on the third day. The cell suspension was adjusted with a cytokine-free medium to a corresponding concentration and plated at 60000 cells/well, with the volume being 90 µL/well. Subsequently, 10 µL of the compounds at different concentrations was added and the plate was incubated in a CO2 incubator for three days. After the incubation was completed, the cell culture supernatant was collected and centrifuged at 2°C-8°C at 800×g for 10 min. The resulting supernatant was collected. Determination was carried out according to the operation instructions for pregnenolone Elisa kit (Antibodies-A73791), and the OD450 signal was read.
2.1 Standard curve plotting. The standard concentration was taken as the abscissa and the OD450 value as the ordinate, the coordinate points of various standards were connected with a smooth line and a curve was fitted according to the four parameter logistic (4-PL) method.
2.2 Sample quantification: The corresponding concentration (CONC) of testosterone/pregnenolone in the sample was calculated using the absorbance value of the sample and the standard curve. According to formula (1), the inhibition rate of the compound at various concentrations was calculated, and S-shaped concentration curves were plotted and the IC50 values (i.e., concentration of the compound at which the inhibition rate was 50%) were calculated using a three parameter non-linear regression model in Graphpad Prim 8.0 software. CONC cpd was the concentration of the treated group, and CONC ctrl was the average concentration value of the solvent control group. Inhibition rate% = 100%−CONCcpd /CONCctrl × 100% [formula] Table 3 Inhibitory effects of compounds on pregnenolone level in NCI-H295R cells

The subject of data set [3] is testosterone level in NCI-H295R cells. The data set can be described thus: cells. Type of data set: cell-based. The settings on record: Homo sapiens, NCI-H295R, 72 h; for IC50: read-out: Testosterone level in H295R (Elisa) IC50 nM. As to the method: The purpose of the experimental study was intended to detect the testosterone level in the NCI-H295R cells by adopting the Enzyme linked immunosorbent assay (ELISA), so as to evaluate the inhibitory effects of the compounds on the testosterone level in the NCI-H295R cells.
The H295R cells were purchased from ATCC, the cell complete medium contained DMEM: F12+ 10% FBS +0.00625 mg/ml insulin +0.00625 mg/ml transferrin+6.25 ng/ml selenium +1.25 mg/ml BSA+0.00535 mg/ml linoleic acid, and the cells were cultured in a 37°C, 5% CO2 incubator. The cells in the exponential growth phase were collected, and cultured in a cytokine-free medium (phenol red 1640-free +1% PS+10% css FBS+1.25 mg/ml BSA +0.00625 mg/ml insulin + 0.00625 mg/ml transferrin+6.25 ng/ml selenium+0.00535 mg/ml linoleic acid) for three days. The cells in the exponential growth phase were collected on the third day. The cell suspension was adjusted with a cytokine-free medium to a corresponding concentration and plated at 60000 cells/well, with the volume being 90 µL/well. Subsequently, 10 µL of the compounds at different concentrations was added and the plate was incubated in a CO2 incubator for three days. After the incubation was completed, according to the operation instructions for testosterone Elisa kit (Beyotime, PT872), 50 µL of the cell culture supernatant was collected from each well and centrifuged at 500 g for 5 min at room temperature and then the resulting supernatant was collected. The samples were added to the corresponding wells at 25 µl/well, and then formulated horseradish peroxidase labelled testosterone was added at 75 µl/well. The mixture was fully mixed for 10 seconds. The reaction wells were sealed with a plate-sealing film (white) and the mixture was incubated at room temperature in the dark for 120 min. The plate was washed three times with a volume of 300 µl per well, and then placed onto thick absorbent paper and dried. Chromogenic reagent TMB solution was added at 100 µl/well. The reaction wells were sealed with a plate-sealing film (white) and the mixture was incubated at room temperature in the dark for 15-20 min. Subsequently, a termination solution was added at 50 µl/well, and after the mixture was fully mixed, the absorbance value OD450 was immediately measured. The absorbance readings were processed using Graphpad Prim 8.0 software and S-shaped concentration curves were plotted and the IC50 values were calculated using a four-parameter non-linear regression model.

Data set [4] in a line: Pharmacokinetic test in rats. Type of data set: in vivo. The settings on record: rat, male SD rats, plasma. The method, then: 3.1 Experimental animals: Male SD rats (about 220 g, 6-8 weeks old, 6 rats/compound) were purchased from Chengdu Dossy Experimental Animals Co., Ltd.
3.2 Experimental design: On the day of the experiment, the SD rats were randomly grouped by body weight. […] Table 4 Administration information
Before and after the administration, 0.1 ml of blood was taken from the orbit of the animals under isoflurane anaesthesia and placed in an EDTAK2 centrifuge tube. The blood was centrifuged at 5000 rpm and 4°C for 10 min to collect plasma. […] Before analysis and detection, all samples were stored at -80°C. Table 5 Pharmacokinetic parameters of test compounds in plasma of rats

Where [5] appears, read: po, intragastric administration (10 mg/kg).
Where [6] appears, read: intravenous administration (2.5 mg/kg).
Setting [7] is: read-out: Testosterone level in H295R (Elisa) inh.% 100 nM.
Where [8] appears, read: read-out: Testosterone level in H295R (Elisa) inh.% 1000 nM.
Setting [9] is: read-out: Testosterone level in H295R (Elisa) inh.% 100 nM, 100 nM compound, NCI-H295R cells, three days incubation.
The mark [10] stands for this setting: read-out: Testosterone level in H295R (Elisa) inh.% 1000 nM, 1000 nM compound, NCI-H295R cells, three days incubation.

SMILES strings stand for the structures. Read-outs that look alike come from different tables or passages of the source.

Consider `O=C(N[C@H]1CC[C@H](/C=C/c2coc(CN3Cc4ccc(C(F)(F)F)cc4C3)cc2=O)CC1)[C@@H]1CC1(F)F` [Compound 89], for which, in data set [1] (setting [5]), the AUC(0-t) is 52500 ng·h/mL and the half-life is 487 min. Besides, in data set [1] (setting [6]), the AUC(0-t) stood at 8460 ng·h/mL, the clearance turned out to be 4.9 mL/min/kg, the half-life was 306 min and the Vd amounted to 1.63 L/kg. For the same compound, in data set [2], the inhibition at 0.1 µM was 41.6% and the inhibition at 1 µM was 64.9%. In addition, in data set [3] (setting [7]), the inhibition at 0.1 µM was 75%. In data set [3] (setting [8]), the inhibition at 1 µM turned out to be 87%.
With `[2H]C([2H])([2H])n1cc(C(=O)N[C@H]2CC[C@H](CCc3coc(CN4Cc5ccc(C(F)(F)F)cc5C4)cc3=O)CC2)cn1` [Compound 118], the AUC(0-t) was 28000 ng·h/mL in data set [1] (setting [5]), 7980 ng·h/mL in data set [1] (setting [6]), 11400 ng·h/mL in data set [4] (setting [5]) and 5200 ng·h/mL in data set [4] (setting [6]). Moreover, the half-life in data set [1] (setting [5]) was 207 min; in data set [1] (setting [6]) it was 167 min; in data set [4] (setting [5]), 265 min; in data set [4] (setting [6]) it was 94.8 min. Further, the clearance worked out at 5.22 mL/min/kg in data set [1] (setting [6]) and 8.18 mL/min/kg in data set [4] (setting [6]). Moreover, the Vd in data set [1] (setting [6]) is 0.966 L/kg; in data set [4] (intravenous administration (2.5 mg/kg), read-out: Vdss) it was 0.755 L/kg. For the same compound, the results for the IC50 in data set [2] and in data set [3] were 71 nM and 36 nM, respectively. Moreover, the inhibition at 0.1 µM in data set [3] (setting [7]) worked out at 70%. The inhibition at 1 µM in data set [3] (setting [8]) is 83%.
Regarding `O=C(N[C@H]1CC[C@H](COc2coc(CN3Cc4ccc(C(F)(F)F)cc4C3)cc2=O)CC1)C1CC1` [Compound 15], in data set [1] (setting [5]), the AUC(0-t) is 25400 ng·h/mL and the half-life is 191 min. In data set [1] (setting [6]), the AUC(0-t) worked out at 6700 ng·h/mL, the clearance stood at 6.21 mL/min/kg, the half-life is 212 min and the Vd was 1.61 L/kg. Moreover, the IC50 in data set [2] was determined as 382 nM. Besides, the IC50 in data set [3] was found to be 13 nM. In addition, the inhibition at 0.1 µM in data set [3] (setting [9]) turned out to be 51%. Moreover, the inhibition at 1 µM in data set [3] (setting [10]) came out at 84.2%.
On to `O=C(N[C@H]1CC[C@H](CCc2coc(CN3Cc4ccc(C(F)(F)F)cc4C3)cc2=O)CC1)C1CC(F)(F)C1` [Compound 95], for which the values for the inhibition at 0.1 µM in data set [2] and in data set [3] (setting [9]) were 50% and 57%, respectively. The values for the inhibition at 1 µM in data set [2] and in data set [3] (setting [10]) were 66% and 81%, respectively.
The matching figures for `C=C1CC(C(=O)N[C@H]2CC[C@H](/C=C/c3coc(CN4Cc5ccc(C(F)(F)F)cc5C4)cc3=O)CC2)C1` [Compound 116]: 48%, 60%, 75% and 66%.
Regarding `O=C(N[C@H]1CC[C@H](/C=C/c2coc(CN3Cc4ccc(C(F)(F)F)cc4C3)cc2=O)CC1)[C@H]1CC1(F)F` [Compound 90], in data set [1] (setting [5]), the AUC(0-t) came out at 40600 ng·h/mL and the half-life was 382 min. In addition, in data set [1] (setting [6]), the AUC(0-t) was 10600 ng·h/mL, the clearance turned out to be 3.67 mL/min/kg, the half-life is 404 min and the Vd is 1.73 L/kg. In addition, in data set [2], the IC50 is 119 nM, the inhibition at 0.1 µM stood at 43.4% and the inhibition at 1 µM was 67%. Besides, the IC50 in data set [3] was 73 nM. The inhibition at 0.1 µM in data set [3] (setting [7]) is 80%. Further, the inhibition at 1 µM in data set [3] (setting [8]) came to 85%.
In the case of `O=C(N[C@H]1CC[C@H](/C=C/c2coc(CN3Cc4ccc(C(F)(F)F)cc4C3)cc2=O)CC1)C1CC(F)(F)C1` [Compound 88], in data set [1] (setting [5]), the AUC(0-t) is 23600 ng·h/mL and the half-life is 269 min. In addition, in data set [1] (setting [6]), the AUC(0-t) was 8550 ng·h/mL, the clearance came out at 4.82 mL/min/kg, the half-life is 269 min and the Vd was 1.54 L/kg. Further, in data set [2], the IC50 is 94 nM, the inhibition at 0.1 µM was determined as 41.6% and the inhibition at 1 µM stood at 64.5%. For the same compound, the IC50 in data set [3] was 59 nM. The inhibition at 0.1 µM in data set [3] (setting [7]) is 76%. Moreover, the inhibition at 1 µM in data set [3] (setting [8]) is 86%.
Consider `COC1CN(CC(=O)N2CCC(/C=C/c3coc(CN4Cc5ccc(C(F)(F)F)cc5C4)cc3=O)CC2)C1` [Compound 18], for which the inhibition at 0.1 µM in data set [2] turned out to be 40.7%; in data set [3] (setting [9]), 80.8%. In addition, the results for the inhibition at 1 µM in data set [2] and in data set [3] (setting [10]) were 50.5% and 92.5%, respectively. For the same compound, the IC50 in data set [3] was found to be 100 nM.
On to `[2H]C([2H])([2H])C(=O)N[C@H]1CC[C@H](/C=C/c2coc(CN3Cc4ccc(C(F)(F)F)cc4C3)cc2=O)CC1` [Compound 80], for which the IC50 in data set [2] stood at 190 nM. The figures for the inhibition at 0.1 µM in data set [2] and in data set [3] (setting [9]) were 38.1% and 71%, respectively. Further, the inhibition at 1 µM in data set [2] came to 59.1%; in data set [3] (setting [10]) it was 84%.
